Laboratory results reported in US20250352518A1, “A BENZIMIDAZOLE COMPOUND WITH ANTIHELMINTHIC ACTIVITY FOR USE IN REVERSING, ARRESTING OR SLOWING DOWN CELLULAR AGEING IN A VERTEBRATE SUBJECT” (RAVAN BIO LIMITED, priority 2022, published 2025).

Columns and labels:
[1] = tested on: post-confluent NHEK cells; assay: Growth of re-cultured post-confluent (cell-cell contact growth arrested) NHEK's; assay type: cell-based, human; details: for continued growth of post-confluent NHEK's (phase contrast): passage 4, 24 hours with compound, 10 μM Y27632, 500-1250 nM Tadalafil, 50-200 nM Fenbendazole; for concentration causing optimal cell growth: post-confluent NHEK
Text: Neonatal human epidermal foreskin keratinocytes (NHEKs) were used to test the ability of compounds to reverse, arrest or slow down cellular ageing. These cells typically undergo approximately 35 cell divisions before the Hayflick limit is reached but they can be induced to undergo premature senescence and, what has been understood to be, irreversible growth arrest earlier than this by induction of cell-cell contact growth inhibition when cultured at high cell density/to confluence (Poumay & Pittelkow 1995 J Inv Dermatol 104, p 271-276). The inventors were thus inspired to culture post-confluent cells and assess the effect of test compounds on the growth, telomere loss and secretion of inflammatory factors by such cells. An experimental schematic is provided as FIG. 1. 1.1 Culture of Early Passage NHEK's in the Presence and Absence of y27632 Pooled donor neonatal NHEK's (Cat No C-12005, Lot No 456Z001.1, PromoCell GmBH), serum-free PromoCell Keratinocyte Growth Medium 2 (KSFM, Cat No C20011. Lot No 472M197), CaCl2) (Lot No 471055) and Supplements (Lot No 472M013) were all obtained from PromoCell GmBH. NHEK's were thawed directly into a single T75 in 20 mls of complete KSFM (CaCl2 & Supplements), incubated over night at 37° C., 5% CO2 and the medium changed the following day. After 3 days the cells were 80% confluent and were passaged (Ist) using 0.05% Trypsin+EDTA (Gibco) into ×2 T75 flasks at a split ratio of 1:4. After overnight incubation at 37° C., 5% CO2, the cultures were at 30% confluence and 10 μM Y27632 (Cat No 688000, Lot No 2884132, Merck) was added to one of the flasks. […] Fresh T75 flasks were seeded with 5.0×10^5 cells from each in their respective medium. […] Fresh T75 flasks were seeded, as described previously, and also 1.2×10^4 NHEK cells/well were seeded into 24 well plates, incubated overnight to allow cell attachment, and the following subsequently added to separate wells: • A. NHEK in complete KSFM • B. NHEK+Y27632 in complete KSFM • C. Y27632 treated NHEK transferred to complete KSFM (Y27632 Removed) • D. NHEK transferred to complete KSFM+500 nM Tadalafil • E. NHEK transferred to complete KSFM+750 nM Tadalafil • F. NHEK transferred to complete KSFM+1000 nM Tadalafil • G. NHEK transferred to complete KSFM+1250 nM Tadalafil • H. NHEK transferred to complete KSFM+50 nM Fenbendazole • I. NHEK transferred to complete KSFM+100 nM Fenbendazole • J. NHEK transferred to complete KSFM+150 nM Fenbendazole • K. NHEK transferred to complete KSFM+200 nM Fenbendazole All drugs were added 24 hours after seeding. […] FIG. 2B is an example of the appearance of post-confluent cells.
Post-confluent NHEK's (FIG. 2B) were subsequently passaged (4th) into a fresh 24 well plate using a split ratio of 1 in 4 in 2 mls of fresh complete KSFM. These were left overnight to attach and the same compounds added (as shown in A-K of 1.1) followed by incubation for a further 24 hours and subsequently photographed.

[2] = tested on: Interleukin 6 (IL-6); assay: IL-6 secretion by NHEK's (Human IL-6 SimpleStep ELISA); assay type: cell-based; details: post-confluent NHEKs, 4 days post-confluence, FIG. 9b; Tadalafil at 500 nM
Protocol: Aliquots of 60,000 NHEK cells were seeded into separate T25 flasks in complete KSFM and incubated at 5% CO2, 37° C. for 3 days until they reached 20% confluence. Fenbendazole and Tadalafil were then added to each of these as either single agents, or in combination, and the cells incubated for a further 3 days at 5% CO2, 37° C. until the cells reached >50% confluence. A sample of medium was then taken for analysis of IL-6 levels using a Human IL-6 SimpleStep ELISA Kit (AbCam Cat No ab178013) according to the manufacturer's instructions (FIG. 9a). Both medium and drugs were replaced, the cells incubated for a further 3 days until confluent, medium and drugs were changed and the incubation continued for 4 days post-confluence when final medium samples were taken for analysis of IL6 levels (FIG. 9b). Each data point was repeated in triplicate and OD 490 nm readings were determined with a Dynex MRX Plate reader.

[3] = tested on: post-confluent NHEK cells; assay: Growth of re-cultured post-confluent (cell-cell contact growth arrested) NHEK's; assay type: cell-based, human
[4] = tested on: neonatal human epidermal foreskin keratinocytes (NHEKs); assay: Culture of early passage NHEK's in the presence and absence of Y27632 (live cell counts); assay type: cell-based
Text: Neonatal human epidermal foreskin keratinocytes (NHEKs) were used to test the ability of compounds to reverse, arrest or slow down cellular ageing. These cells typically undergo approximately 35 cell divisions before the Hayflick limit is reached but they can be induced to undergo premature senescence and, what has been understood to be, irreversible growth arrest earlier than this by induction of cell-cell contact growth inhibition when cultured at high cell density/to confluence (Poumay & Pittelkow 1995 J Inv Dermatol 104, p 271-276). The inventors were thus inspired to culture post-confluent cells and assess the effect of test compounds on the growth, telomere loss and secretion of inflammatory factors by such cells. […] Lot No 472M197), CaCl2) (Lot No 471055) and Supplements (Lot No 472M013) were all obtained from PromoCell GmBH. NHEK's were thawed directly into a single T75 in 20 mls of complete KSFM (CaCl2 & Supplements), incubated over night at 37° C., 5% CO2 and the medium changed the following day. […] After a further 48 hours both flasks were 60% confluent and phase contrast images were recorded (Zeiss […]). […] The inventors assessed that these cells had stopped growing due to cell-cell contact inhibition and had become post-confluent as defined herein. […]

[5] = tested on: 14th passage NHEK cells; assay: Toxic effects on late-passage (passage 14) NHEK's; assay type: cell-based, human; details: 6 days, 10 μM Y27632 or 500 nM Tadalafil+100 nM Fenbendazole
Text: NHEK's were maintained in complete KSFM for 55 days with serial passage routinely carried out at 80% confluence in T75 flasks, as previously described in 1.1. These cells were not grown to be post-confluent and the cells were therefore not used to assess the ability of test compounds to reverse, arrest or slow down cellular ageing. Instead, the cells were used to assess whether or not Y27632, fenbendazole or tadalafil has any toxic effects. After the 55 days, a total of 50,000 cells/well of 14th passage NHEK cells were seeded into 6 well plates and, after 24 hours, Y27632, and a mixture of Tadalafil and Fenbendazole were added.

Compound | continued growth of post-confluent NHEK's (phase contrast) ([1]; FIG. 3) | concentration causing optimal cell growth ([1]; cultured for a further 24 hrs, FIG. 4) | concentration causing optimal cell growth ([1]; passage 4, 24 hours, FIG. 3) | secretion of IL-6 compared to DMSO control [2] | number of viable cells (Via-1 Assay) following withdrawal of drug ([3]; treatment P3-P5 only, withdrawn following passage 6, 5 days, FIG. 5) | number of viable cells (Via-1 Assay) ([3]; treatment continued for passages P3-P6, 5 days after passage 6, FIG. 5) | total live cell counts ([4]; KSFM+10 μM Y27632, 2nd passage at 80% confluence) | cell counts ([4]; KSFM+10 μM Y27632, 3rd passage, 72 hours after seeding 5.0×10^5 cells) | proliferation and cell death of late passage cells [5]
CN1CC(=O)N2[C@H](c3ccc4c(c3)OCO4)c3[nH]c4ccccc4c3C[C@@H]2C1=O [Tadalafil, pyrazino[1′,2′: 1,6]pyrido[3,4-b]indole-1,4-dione, 6-(1,3-benzodioxol-5-yl)-2,3,6,7,12,12a-hexahydro-2-methyl-, (6R,12aR)] | all exhibited cell growth | about 1000 nM | 750 to 1000 nM | least effective | 1.3×10^4 cells/ml | 4.3×10^4 cells/ml | – | – | –
C[C@@H](N)[C@H]1CC[C@H](C(=O)Nc2ccncc2)CC1 [Y27632] | no, or minimal cell rejuvenation | – | – | – | – | – | 5.2×10^5 cells/ml | 5.3×10^5 cells/ml | no proliferation and extensive cell death
